From article PMC11167047 (Cell Death Discovery, 2024)

Tests used:
Assay in all cases: kinome screen (33PanQinase)
Format in all cases: biochemical
PKCη = target: T1, PKCη (Homo sapiens, UniProt P24723)
T1 construct: purchased Reaction Biology Europe GmbH (formerly ProQinase)
Experimental: (§1) The Kinome Screening was performed by Reaction Biology Europe GmbH (http://reactionbiology.com; Freiburg i. Br., Germany).

MAPKAPK5 = target: T2, MAPKAPK5 (Homo sapiens, UniProt Q8IW41)
T2 construct: purchased Reaction Biology Europe GmbH (formerly ProQinase)
T2 sequence (Q8IW41 whole entry): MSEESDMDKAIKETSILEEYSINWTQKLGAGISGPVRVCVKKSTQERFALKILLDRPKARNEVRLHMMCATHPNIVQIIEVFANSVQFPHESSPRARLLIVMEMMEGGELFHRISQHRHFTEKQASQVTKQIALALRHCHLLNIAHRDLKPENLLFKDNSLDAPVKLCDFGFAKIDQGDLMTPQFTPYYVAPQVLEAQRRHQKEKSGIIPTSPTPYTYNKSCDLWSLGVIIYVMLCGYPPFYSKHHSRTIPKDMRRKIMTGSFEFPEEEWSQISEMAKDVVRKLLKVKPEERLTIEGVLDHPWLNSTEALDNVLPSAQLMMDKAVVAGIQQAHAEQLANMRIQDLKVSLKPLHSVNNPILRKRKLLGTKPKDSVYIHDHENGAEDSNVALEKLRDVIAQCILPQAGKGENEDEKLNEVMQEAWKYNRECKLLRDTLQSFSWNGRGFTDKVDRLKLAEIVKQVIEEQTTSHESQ
Experimental: as §1

CDK6/CycD3 = target: T3, CDK6/CycD3 (Homo sapiens, UniProt Q00534)
T3 construct: purchased Reaction Biology Europe GmbH (formerly ProQinase)
T3 sequence (Q00534 whole entry): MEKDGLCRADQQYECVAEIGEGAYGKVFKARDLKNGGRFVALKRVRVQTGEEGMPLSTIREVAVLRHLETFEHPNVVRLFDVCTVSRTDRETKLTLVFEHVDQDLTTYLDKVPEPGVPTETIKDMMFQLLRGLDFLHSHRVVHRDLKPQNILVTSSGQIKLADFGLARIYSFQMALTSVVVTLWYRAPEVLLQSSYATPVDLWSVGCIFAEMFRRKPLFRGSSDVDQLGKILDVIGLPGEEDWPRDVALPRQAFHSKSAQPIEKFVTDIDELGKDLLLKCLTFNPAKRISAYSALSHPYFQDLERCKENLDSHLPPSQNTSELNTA
T3 sequence (P30281 whole entry partner): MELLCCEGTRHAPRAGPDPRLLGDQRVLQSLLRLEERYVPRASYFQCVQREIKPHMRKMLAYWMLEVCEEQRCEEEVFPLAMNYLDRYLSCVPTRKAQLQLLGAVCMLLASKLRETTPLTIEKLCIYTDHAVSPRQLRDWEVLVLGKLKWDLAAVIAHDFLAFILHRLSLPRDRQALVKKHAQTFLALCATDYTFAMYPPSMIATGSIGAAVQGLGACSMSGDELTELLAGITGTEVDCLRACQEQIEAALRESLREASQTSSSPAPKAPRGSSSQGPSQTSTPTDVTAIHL
Experimental: as §1

CLK1 = target: T4, CLK1 (Homo sapiens, UniProt P49759)
T4 construct: purchased Reaction Biology Europe GmbH (formerly ProQinase)
T4 sequence (P49759 whole entry): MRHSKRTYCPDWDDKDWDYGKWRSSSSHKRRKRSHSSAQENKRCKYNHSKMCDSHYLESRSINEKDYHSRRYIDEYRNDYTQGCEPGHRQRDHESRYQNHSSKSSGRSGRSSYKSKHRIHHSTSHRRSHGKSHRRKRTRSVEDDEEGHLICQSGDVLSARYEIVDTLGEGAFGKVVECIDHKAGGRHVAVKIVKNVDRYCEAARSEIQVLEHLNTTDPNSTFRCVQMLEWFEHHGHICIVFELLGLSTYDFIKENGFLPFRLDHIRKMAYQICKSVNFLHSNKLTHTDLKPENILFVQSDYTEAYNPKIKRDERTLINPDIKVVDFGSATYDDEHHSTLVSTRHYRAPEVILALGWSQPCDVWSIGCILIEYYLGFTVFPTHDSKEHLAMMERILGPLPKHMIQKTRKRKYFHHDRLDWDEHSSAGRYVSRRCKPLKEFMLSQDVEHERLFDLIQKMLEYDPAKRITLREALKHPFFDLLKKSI
Experimental: as §1

CDK4/CycD1 = target: T5, CDK4/CycD1 (Homo sapiens, UniProt P11802)
T5 construct: purchased Reaction Biology Europe GmbH (formerly ProQinase)
T5 sequence (P11802 whole entry): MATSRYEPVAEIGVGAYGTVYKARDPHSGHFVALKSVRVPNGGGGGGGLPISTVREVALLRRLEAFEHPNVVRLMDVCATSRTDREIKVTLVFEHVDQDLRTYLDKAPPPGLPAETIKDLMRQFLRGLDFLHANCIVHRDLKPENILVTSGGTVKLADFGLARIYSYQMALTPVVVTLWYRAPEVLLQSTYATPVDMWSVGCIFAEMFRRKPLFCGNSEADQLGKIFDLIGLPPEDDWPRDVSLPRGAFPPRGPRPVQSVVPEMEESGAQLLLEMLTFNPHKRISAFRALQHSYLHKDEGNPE
T5 sequence (P24385 whole entry partner): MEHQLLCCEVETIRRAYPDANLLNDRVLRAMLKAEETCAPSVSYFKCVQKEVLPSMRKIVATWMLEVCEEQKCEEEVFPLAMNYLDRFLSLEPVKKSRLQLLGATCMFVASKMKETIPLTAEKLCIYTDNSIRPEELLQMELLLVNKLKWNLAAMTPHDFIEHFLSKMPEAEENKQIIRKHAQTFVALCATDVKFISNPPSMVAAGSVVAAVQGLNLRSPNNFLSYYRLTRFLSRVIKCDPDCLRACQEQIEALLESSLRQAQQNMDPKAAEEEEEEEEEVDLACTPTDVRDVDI
Experimental: as §1

NEK11 = target: T6, NEK11 (Homo sapiens, UniProt Q8NG66)
T6 construct: purchased Reaction Biology Europe GmbH (formerly ProQinase)
T6 sequence (Q8NG66 1-645): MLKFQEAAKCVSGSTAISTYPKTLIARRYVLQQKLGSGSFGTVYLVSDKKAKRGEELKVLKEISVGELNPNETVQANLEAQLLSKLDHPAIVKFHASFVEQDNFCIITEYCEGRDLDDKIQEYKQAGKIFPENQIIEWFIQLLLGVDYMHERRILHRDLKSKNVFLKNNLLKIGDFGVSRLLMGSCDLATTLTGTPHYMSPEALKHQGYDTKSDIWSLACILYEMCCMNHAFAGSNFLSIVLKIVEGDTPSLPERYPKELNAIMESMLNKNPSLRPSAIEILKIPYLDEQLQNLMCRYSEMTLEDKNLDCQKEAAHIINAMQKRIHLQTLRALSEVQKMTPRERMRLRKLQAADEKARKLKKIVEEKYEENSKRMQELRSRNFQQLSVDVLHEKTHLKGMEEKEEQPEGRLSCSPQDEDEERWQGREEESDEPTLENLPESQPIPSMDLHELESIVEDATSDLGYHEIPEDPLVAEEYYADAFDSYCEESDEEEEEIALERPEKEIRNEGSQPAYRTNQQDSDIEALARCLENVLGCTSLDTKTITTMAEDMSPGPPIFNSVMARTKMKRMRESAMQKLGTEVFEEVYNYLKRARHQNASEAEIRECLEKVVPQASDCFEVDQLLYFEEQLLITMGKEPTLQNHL
Experimental: as §1

IKKβ = target: T7, IKKβ (Homo sapiens, UniProt O14920)
T7 construct: purchased Reaction Biology Europe GmbH (formerly ProQinase)
T7 sequence (O14920 1-756): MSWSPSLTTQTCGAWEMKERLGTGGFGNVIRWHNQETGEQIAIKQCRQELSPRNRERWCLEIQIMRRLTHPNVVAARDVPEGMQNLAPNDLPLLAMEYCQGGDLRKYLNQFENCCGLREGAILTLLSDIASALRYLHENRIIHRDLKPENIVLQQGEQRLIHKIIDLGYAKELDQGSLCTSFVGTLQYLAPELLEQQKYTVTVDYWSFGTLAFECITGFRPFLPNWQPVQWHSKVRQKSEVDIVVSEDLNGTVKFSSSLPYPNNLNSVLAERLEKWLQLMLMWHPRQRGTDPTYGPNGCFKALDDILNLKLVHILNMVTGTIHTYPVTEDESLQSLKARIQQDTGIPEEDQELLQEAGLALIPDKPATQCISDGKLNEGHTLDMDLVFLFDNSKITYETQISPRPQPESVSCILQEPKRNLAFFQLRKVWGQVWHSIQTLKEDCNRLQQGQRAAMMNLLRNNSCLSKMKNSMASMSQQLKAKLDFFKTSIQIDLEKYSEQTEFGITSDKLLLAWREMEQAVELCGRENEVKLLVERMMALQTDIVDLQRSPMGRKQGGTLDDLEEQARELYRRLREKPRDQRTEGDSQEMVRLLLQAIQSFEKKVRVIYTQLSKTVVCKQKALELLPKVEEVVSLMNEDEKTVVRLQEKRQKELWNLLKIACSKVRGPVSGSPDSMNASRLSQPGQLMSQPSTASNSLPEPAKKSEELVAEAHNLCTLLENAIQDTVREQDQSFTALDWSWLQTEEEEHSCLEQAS
Experimental: as §1

EGFR = target: T8, EGFR (Homo sapiens, UniProt P00533)
T8 construct: purchased Reaction Biology Europe GmbH (formerly ProQinase)
T8 sequence (P00533 25-1210): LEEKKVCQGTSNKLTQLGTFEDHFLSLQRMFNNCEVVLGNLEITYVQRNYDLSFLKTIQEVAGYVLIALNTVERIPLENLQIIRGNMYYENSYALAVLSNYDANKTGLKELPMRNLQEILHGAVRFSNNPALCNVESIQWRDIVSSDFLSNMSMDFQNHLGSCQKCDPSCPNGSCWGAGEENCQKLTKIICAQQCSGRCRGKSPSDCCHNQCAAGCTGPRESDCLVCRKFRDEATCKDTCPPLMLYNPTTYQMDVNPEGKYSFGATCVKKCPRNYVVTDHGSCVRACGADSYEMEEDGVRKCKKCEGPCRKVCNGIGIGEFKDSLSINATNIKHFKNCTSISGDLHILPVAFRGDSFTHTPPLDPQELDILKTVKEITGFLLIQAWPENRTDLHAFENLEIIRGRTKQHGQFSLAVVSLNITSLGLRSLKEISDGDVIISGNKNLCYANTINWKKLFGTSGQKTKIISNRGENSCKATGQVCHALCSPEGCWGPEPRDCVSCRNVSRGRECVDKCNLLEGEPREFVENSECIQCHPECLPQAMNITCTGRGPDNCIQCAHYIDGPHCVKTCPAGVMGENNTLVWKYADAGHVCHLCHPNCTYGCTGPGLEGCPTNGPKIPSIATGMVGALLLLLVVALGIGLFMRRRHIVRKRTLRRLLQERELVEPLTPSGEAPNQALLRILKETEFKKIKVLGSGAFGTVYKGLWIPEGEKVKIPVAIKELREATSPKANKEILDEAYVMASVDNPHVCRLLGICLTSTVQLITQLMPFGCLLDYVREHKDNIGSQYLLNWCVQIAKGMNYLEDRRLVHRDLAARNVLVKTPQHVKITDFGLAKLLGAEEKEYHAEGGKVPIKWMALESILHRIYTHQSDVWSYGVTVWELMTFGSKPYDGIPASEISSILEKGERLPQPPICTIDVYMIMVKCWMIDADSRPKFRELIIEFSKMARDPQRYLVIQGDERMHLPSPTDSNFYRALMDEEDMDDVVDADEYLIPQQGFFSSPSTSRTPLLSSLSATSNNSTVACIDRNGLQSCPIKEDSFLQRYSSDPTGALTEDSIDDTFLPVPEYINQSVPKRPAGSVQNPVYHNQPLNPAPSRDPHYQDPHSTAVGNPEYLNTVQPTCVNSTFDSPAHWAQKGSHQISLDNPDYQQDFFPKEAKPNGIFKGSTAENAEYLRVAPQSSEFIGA
Experimental: as §1

TYRO3 = target: T9, TYRO3 (Homo sapiens, UniProt Q06418)
T9 construct: purchased Reaction Biology Europe GmbH (formerly ProQinase)
T9 sequence (Q06418 41-890): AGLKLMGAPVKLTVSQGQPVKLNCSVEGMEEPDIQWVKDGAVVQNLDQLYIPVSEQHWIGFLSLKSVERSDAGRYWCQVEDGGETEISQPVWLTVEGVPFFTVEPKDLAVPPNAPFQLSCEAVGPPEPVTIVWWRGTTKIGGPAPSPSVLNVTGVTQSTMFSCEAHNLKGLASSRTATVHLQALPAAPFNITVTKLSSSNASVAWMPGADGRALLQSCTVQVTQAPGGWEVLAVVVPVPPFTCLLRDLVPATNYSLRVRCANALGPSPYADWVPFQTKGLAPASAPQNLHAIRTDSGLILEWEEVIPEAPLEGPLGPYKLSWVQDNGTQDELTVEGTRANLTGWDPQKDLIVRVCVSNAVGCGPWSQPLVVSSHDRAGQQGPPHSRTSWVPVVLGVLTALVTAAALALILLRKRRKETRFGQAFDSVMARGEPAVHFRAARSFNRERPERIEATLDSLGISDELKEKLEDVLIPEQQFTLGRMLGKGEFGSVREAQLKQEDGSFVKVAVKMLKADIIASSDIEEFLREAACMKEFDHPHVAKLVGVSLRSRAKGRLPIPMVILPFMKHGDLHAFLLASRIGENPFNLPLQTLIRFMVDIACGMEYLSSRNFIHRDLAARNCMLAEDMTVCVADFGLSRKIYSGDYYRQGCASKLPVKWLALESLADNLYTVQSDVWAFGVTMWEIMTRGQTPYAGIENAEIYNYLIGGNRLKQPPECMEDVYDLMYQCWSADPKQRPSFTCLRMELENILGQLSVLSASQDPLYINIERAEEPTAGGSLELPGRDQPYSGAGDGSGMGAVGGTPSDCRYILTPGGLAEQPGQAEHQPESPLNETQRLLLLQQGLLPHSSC
Experimental: as §1

BMPR1B = target: T10, BMPR1B (Homo sapiens, UniProt O00238)
T10 construct: purchased Reaction Biology Europe GmbH (formerly ProQinase)
T10 sequence (O00238 14-502): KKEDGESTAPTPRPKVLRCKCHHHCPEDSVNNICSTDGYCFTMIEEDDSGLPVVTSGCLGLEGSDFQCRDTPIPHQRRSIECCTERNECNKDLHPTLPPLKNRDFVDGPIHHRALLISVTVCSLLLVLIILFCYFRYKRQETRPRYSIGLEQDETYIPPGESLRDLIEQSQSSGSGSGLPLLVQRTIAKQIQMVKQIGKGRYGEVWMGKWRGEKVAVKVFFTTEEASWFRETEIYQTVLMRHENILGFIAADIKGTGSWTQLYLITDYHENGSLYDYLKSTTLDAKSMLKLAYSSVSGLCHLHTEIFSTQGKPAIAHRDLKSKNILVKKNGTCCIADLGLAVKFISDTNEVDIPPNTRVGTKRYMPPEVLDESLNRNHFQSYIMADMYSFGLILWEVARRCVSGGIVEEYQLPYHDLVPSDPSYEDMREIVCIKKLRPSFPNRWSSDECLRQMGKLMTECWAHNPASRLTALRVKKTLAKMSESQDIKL
Experimental: as §1

T1 sequence (P24723 whole entry): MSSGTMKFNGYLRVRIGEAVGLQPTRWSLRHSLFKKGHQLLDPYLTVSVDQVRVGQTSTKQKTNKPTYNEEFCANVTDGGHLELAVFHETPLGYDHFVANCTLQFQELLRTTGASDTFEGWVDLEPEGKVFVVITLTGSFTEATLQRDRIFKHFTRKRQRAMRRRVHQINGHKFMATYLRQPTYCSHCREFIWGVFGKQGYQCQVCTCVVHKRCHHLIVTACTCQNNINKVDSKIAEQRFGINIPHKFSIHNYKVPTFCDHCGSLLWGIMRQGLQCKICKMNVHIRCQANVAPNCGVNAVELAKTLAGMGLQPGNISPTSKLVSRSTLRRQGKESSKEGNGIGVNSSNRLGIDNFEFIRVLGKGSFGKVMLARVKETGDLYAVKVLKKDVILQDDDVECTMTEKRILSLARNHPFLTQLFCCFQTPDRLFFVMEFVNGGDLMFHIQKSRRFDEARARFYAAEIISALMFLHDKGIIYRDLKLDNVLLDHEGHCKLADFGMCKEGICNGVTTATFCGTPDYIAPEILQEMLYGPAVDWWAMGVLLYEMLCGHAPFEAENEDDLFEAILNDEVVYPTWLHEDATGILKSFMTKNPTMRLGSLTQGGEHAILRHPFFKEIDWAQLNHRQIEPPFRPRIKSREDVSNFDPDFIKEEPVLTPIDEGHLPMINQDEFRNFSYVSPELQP

## COc1ccnc2[nH]cc(-c3cc(N)nc(N)c3)c12 [meriolin 16]
PKCη; 0.03 µM
  residual kinase activity: 8 % of control
PKCη; 0.3 µM
  residual kinase activity: 2 % of control
MAPKAPK5; 0.3 µM
  residual kinase activity: 85 % of control
CDK6/CycD3; 0.03 µM
  residual kinase activity: 88 % of control
CDK6/CycD3; 0.3 µM
  residual kinase activity: 98 % of control
CLK1; 0.03 µM
  residual kinase activity: 11 % of control
CLK1; 0.3 µM
  residual kinase activity: 3 % of control
CDK4/CycD1; 0.03 µM
  residual kinase activity: 86 % of control
CDK4/CycD1; 0.3 µM
  residual kinase activity: 36 % of control
NEK11; 0.03 µM
  residual kinase activity: 97 % of control
NEK11; 0.3 µM
  residual kinase activity: 87 % of control
IKKβ; 0.03 µM
  residual kinase activity: 85 % of control
IKKβ; 0.3 µM
  residual kinase activity: 64 % of control
EGFR; 0.03 µM
  residual kinase activity: 109 % of control
EGFR; 0.3 µM
  residual kinase activity: 90 % of control
TYRO3; 0.03 µM
  residual kinase activity: 104 % of control
TYRO3; 0.3 µM
  residual kinase activity: 89 % of control
BMPR1B; 0.03 µM
  residual kinase activity: 91 % of control
BMPR1B; 0.3 µM
  residual kinase activity: 91 % of control

## c1ccc(CNc2cc(-c3c[nH]c4ncccc34)ccn2)cc1 [meriolin 36]
PKCη; 0.3 µM
  residual kinase activity: 2 % of control
PKCη; 3 µM
  residual kinase activity: 2 % of control
MAPKAPK5; 3 µM
  residual kinase activity: 69 % of control
CDK6/CycD3; 0.3 µM
  residual kinase activity: 76 % of control
CDK6/CycD3; 3 µM
  residual kinase activity: 26 % of control
CLK1; 0.3 µM
  residual kinase activity: 4 % of control
CLK1; 3 µM
  residual kinase activity: 2 % of control
CDK4/CycD1; 0.3 µM
  residual kinase activity: 24 % of control
CDK4/CycD1; 3 µM
  residual kinase activity: 4 % of control
NEK11; 0.3 µM
  residual kinase activity: 105 % of control
NEK11; 3 µM
  residual kinase activity: 85 % of control
IKKβ; 0.3 µM
  residual kinase activity: 80 % of control
IKKβ; 3 µM
  residual kinase activity: 36 % of control
EGFR; 0.3 µM
  residual kinase activity: 107 % of control
EGFR; 3 µM
  residual kinase activity: 53 % of control
TYRO3; 0.3 µM
  residual kinase activity: 94 % of control
TYRO3; 3 µM
  residual kinase activity: 64 % of control
BMPR1B; 0.3 µM
  residual kinase activity: 75 % of control
BMPR1B; 3 µM
  residual kinase activity: 45 % of control
